{"source": "patent US6265443A", "about": "“Method for treating neuronal injury with carboxyfullerene” (priority 1997, dated 2001)", "key": {"[1]": {"settings": "native C60; toluene or benzene; cited from earlier work"}, "[2]": {"experiment": "EPR free radical scavenging (hydroxyl and superoxide)", "settings": "for anti-oxidant potency, isomers compared: EPR analysis", "protocol": "FIGS. 9A and 9B show the EPR spectra of OH (from 100 μM H2 O2 in Fe^2+ by the Fenton reaction) and O2 - (from xanthine+xanthine oxidase) radicals with 100 mM 5,5-dimethyl-1-pyrolline-N-oxide (DMPO) as the spin-trapping agent. Hydroxyl radical (FIG. 9A): OH in the presence of […] alone (top), in the presence of 4 mM O-3a (middle), or in the presence of 4 mM R-3b (bottom). Superoxide radical (right): O2 - in DMPO alone (top), in the presence of 400 mM O-3a (middle), in the presence of 400 mM R-3b (bottom). […] The sample was analyzed in a quartz flat cell (60×10×0.25 mm) in a Bruker 200, X-band EPR spectrometer. Settings were power=1.6 mW, modulation=1 G, field modulation=100 Hz, R.G.=3.2×10^5."}, "[3]": {"experiment": "Spin-label/EPR membrane parameters (5- or 16-doxyl ketostearic acid in brain lipids)", "design": "species or system mouse", "settings": "16-doxylstearic acid; control 0.8", "protocol": "Values are mean±SEM, n=8-12 per condition. I=p<0.05 vs. untreated injury condition, using ANOVA followed by Student-Newman-Keuls test for multiple comparisons. **=p<0.05 R-3b different than O-3a. […] The spin labels were added to lipids extracted from adult mouse brain at a ratio of 1:100. EPR settings were the same as those listed in the legend for FIGS. 9A and 9B.\n^a Order parameter, S = a(T_.cent. - T .cent.)/(T - T ),\n^b Correlation time, tc = 6.5 × 10^-10 wo [(ho\n^c Lipid/aqueous partition factor, f = hL /hA, where hL"}, "[4]": {"test_system": "endothelial cell cultures", "experiment": "Protection in endothelial cell cultures", "format": "cell-based"}, "[5]": {"test_system": "hepatocytes", "experiment": "Protection in hepatocytes", "format": "cell-based"}, "[6]": {"experiment": "EPR spin-trap (DMPO) hydroxyl radical scavenging", "settings": "for scavenging of OH: EPR", "protocol": "(§1) FIGS. 9A and 9B show the EPR spectra of OH (from 100 μM H2 O2 in Fe^2+ by the Fenton reaction) and O2 - (from xanthine+xanthine oxidase) radicals with 100 mM 5,5-dimethyl-1-pyrolline-N-oxide (DMPO) as the spin-trapping agent. Hydroxyl radical (FIG. 9A): OH in the presence of […] alone (top), in the presence of 4 mM O-3a (middle), or in the presence of 4 mM R-3b (bottom). Superoxide radical (right): O2 - in DMPO alone (top), in the presence of 400 mM O-3a (middle), in the presence of 400 mM R-3b (bottom). The arrow designates a spurious signal due to an unknown radical in the cavity. The sample was analyzed in a quartz flat cell (60×10×0.25 mm) in a Bruker 200, X-band EPR spectrometer. Settings were power=1.6 mW, modulation=1 G, field modulation=100 Hz, R.G.=3.2×10^5."}, "[7]": {"test_system": "cortical neurons", "experiment": "AMPA-induced excitotoxic neuronal death in neuron-astrocyte co-cultures (LDH efflux)", "format": "cell-based, mouse", "protocol": "(§2) Mouse embryos (gestational day 15) are removed from pregnant anesthetized Swiss-Webster mice, and the neocortex is dissected away from other brain structures. After brief incubation in trypsin, the cells are dissociated by trituration, and the cell suspension is then diluted into plating medium and plated onto previously-prepared 24-well Plastek culture plates coated with poly-D-lysine/laminin (for neuronal cultures) or onto an existing bed of astrocytes (for co-cultures). After 1-2days in vitro, a partial exchange with glial conditioned medium is made for \"pure\" neuronal cultures, and cytosine arabinoside (3 μM) is added immediately after feeding to inhibit glial proliferation. Mixed cultures are fed biweekly with growth medium until 11-12 days in vitro, when they are fed with serum-free MS containing 2 mM L-glutamine. Unless otherwise stated, cells were used at 14-16 days in vitro."}, "[8]": {"test_system": "cortical neurons", "experiment": "NMDA-induced excitotoxic neuronal death in neuron-astrocyte co-cultures (LDH efflux)", "format": "cell-based, mouse", "protocol": "as §2\nCarboxyfullerene (3-300 (M) was co-applied to neuron-astrocyte co-cultures described above with NMDA for assessment of neuroprotection. Brief exposure to NMDA in the presence of the carboxyfullerene was carried out by triple exchange of the medium with HBBSS, followed by addition of 50 μM-500 μM NMDA plus carboxyfullerene for 10 minutes. The NMDA and carboxyfullerene were removed by quadruple exchange of the medium with MS, and the cultures were placed in the humidified, CO2 (5%), 37° C. incubator for 24 hours, when the extent of injury was assessed."}, "[9]": {"experiment": "EPR spin-trap (DMPO) superoxide radical scavenging, xanthine + xanthine oxidase", "settings": "xanthine oxidase with xanthine", "protocol": "as §1"}, "[10]": {"test_system": "cortical neurons", "experiment": "Neuroprotection, general statement", "format": "cell-based, mouse", "protocol": "as §2"}, "[11]": {"experiment": "Solubility", "format": "physicochemical", "from_the_text": "Solutions of carboxyfullerene were translucent brown."}, "[12]": {"test_system": "cortical neurons", "experiment": "Serum deprivation apoptotic neuronal death (trypan blue)", "format": "cell-based, mouse", "protocol": "as §2"}, "[13]": {"test_system": "FALS mice", "experiment": "Survival in transgenic model of ALS (FALS mice, Gurney G1 strain)", "format": "in vivo, mouse", "settings": "15 mg/kg/day, intraperitoneal mini-osmotic pumps", "protocol": "The G1 line, with 18 copies and 4 times the SOD activity of wildtype animals, develops motor neuron death by 3-4 months of age, with hindlimb weakness, impaired grooming, and thinning along their flanks. Affected mice were dead before 5 months of age (Gurney et al., 1994).\nC60 (C(COOH)2)3 was used to treat FALS mice (Gurney G1 strain) to determine its ability to treat FALS. At 10 weeks of age, Alzet mini-osmotic pumps (28 day, 6 (l/day, 15 mg/kg/day) containing C60 (C(COOH)2)3 (the mixed isomers, which consist of >90% O-3a) or saline were implanted intraperitoneally. The pumps were replaced at 14 weeks of age. Videotaped assessments of open field walking were performed and scored using the Bresnahan scale for spinal cord injury (Basso et al, 1995). As reported by Gurney and colleagues, these animals develop motor symptoms by approximately 90 days of age, and are moribund between 125 and 145 days of age."}, "[14]": {"test_system": "wild-type animals", "settings": "mouse, in vivo, 15 mg/kg/day", "from_the_text": "The 8 day increase in survival reached statistical significance (p=0.041), by t-test. There was no difference in survival for FALS mice who received no pumps (123 days, n=4) or those treated with saline-filled pumps (125 days, n=6)."}, "[15]": {"test_system": "NMDA receptor", "experiment": "NMDA-stimulated 45Ca2+ accumulation in cultured neurons", "format": "cell-based, mouse", "settings": "up to 300 (M [µM], with NMDA 300 (M, 10 min", "protocol": "as §2, with “Mouse neocortical cultures were prepared as neuron-astrocyte co-cultures (approximately 50% astrocytes) (Rose et al., 1992) or as neuronal cultures (<2% astrocytes). Mouse” for “Mouse”\nTo verify that protection against NMDA-induced neuronal cell injury was not due to a reduction in NMDA-induced calcium influx, ^45 Ca^2+ tracer studies were performed. […]"}}, "note": "Entries after “also recorded” stand apart in the source; their conditions may differ."}
{"compound": "c12c3c4c5c1c1c6c7c2c2c8c3c3c9c4c4c%10c5c5c1c1c6c6c%11c7c2c2c7c8c3c3c8c9c4c4c9c%10c5c5c1c1c6c6c%11c2c2c7c3c3c8c4c4c9c5c1c1c6c2c3c41", "note": "[C60, Buckminsterfullerene]", "values": [{"measurement": "solubility (solvents)", "setting": "[1]", "value": "soluble only in a limited number of solvents, such as toluene or benzene"}]}
{"compound": "O=C(O)C1(C(=O)O)C23c4c5c6c7c8c4-c4c2c2c9c%10c%11c%12c(c-5c5c%13c%14c%15c%16c%17c(c-7c7c%18c%19c%20c%21c(c4C%204C(C(=O)O)(C(=O)O)C874)c2c2c9c4c%11c7c(c%13%12)c%14c8c%16c9c(c%18%17)c%19c%11c%21c2c2c4c7c8c9c%112)C%152C(C(=O)O)(C(=O)O)C652)C%1013", "note": "(stereo not shown) [O-3a]", "values": [{"measurement": "anti-oxidant potency, isomers compared", "setting": "[2]", "value": "equipotent anti-oxidants"}, {"measurement": "Lipid/aqueous partition factors", "setting": "[3]", "value": "1.0 ± 0.2"}, {"measurement": "protection from injury in endothelial cell cultures vs R-3b", "setting": "[4]", "value": "enhanced protection over R-3b"}, {"measurement": "protection from injury in hepatocytes vs R-3b", "setting": "[5]", "value": "enhanced protection over R-3b"}, {"measurement": "OH signal (DMPO-OH spin adduct)", "setting": "[6]; 150 (M [µM], H2O2, 15 minute period", "value": "elimination of this OH signal"}, {"measurement": "scavenging of OH", "setting": "[6]", "value": "extremely potent scavengers of OH"}, {"measurement": "protection against AMPA-induced neuronal death vs R-3b", "setting": "[7]; FIG. 10B, n=8-12 per condition", "value": "substantially better protection"}, {"measurement": "protection from NMDA injury vs R-3b", "setting": "[8]; FIG. 10A, n=8-12 per condition", "value": "slightly better protection"}, {"measurement": "superoxide radical signal (DMPO-OOH)", "setting": "[9]", "value": "eliminated the superoxide radical signal"}]}
{"compound": "O=C(O)C1(C(=O)O)C23c4c5c6c7c8c9c%10c%11c%12c%13c%14c%15c(c6c6c4c4c%16c%17c%18c(c%19c%20c2c5c8c2c%20c5c%19c8c%19c%20c(c%21c%12c%12c%22c%23c(c(c%188)C%198C(C(=O)O)(C(=O)O)C%21%228)c%17c8c4c6c%15c(c%12%14)c%238)c%11c(c92)c%205)C%1613)C71C(C(=O)O)(C(=O)O)C%13%101", "note": "(stereo not shown) [R-3b]", "values": [{"measurement": "anti-oxidant potency, isomers compared", "setting": "[2]", "value": "equipotent anti-oxidants"}, {"measurement": "neuroprotection", "setting": "[10]", "value": "effective neuroprotectant"}, {"measurement": "Lipid/aqueous partition factors", "setting": "[3]", "value": 0.6}, {"measurement": "scavenging of OH", "setting": "[6]", "value": "extremely potent scavengers of OH"}, {"measurement": "superoxide radical signal (DMPO-OOH)", "setting": "[9]", "value": "eliminated the superoxide radical signal"}]}
{"compound": "O=C(O)C1(C(=O)O)C23c4c5c6c7c8c9c(c%10c%11c2c2c4c4c%12c5c5c6c6c8c8c%13c9c9c%10c%10c%11c%11c2c2c4c4c%12c%12c5c5c6c8c6c8c%13c9c9c%10c%10c%11c2c2c4c4c%12c5c6c5c8c9c%10c2c45)C713", "note": "[dicarboxy fullerene]", "values": [{"measurement": "neuroprotective efficacy vs hexacarboxy derivative", "setting": "[10]", "value": "less effective neuroprotectants"}, {"measurement": "solubility in aqueous solution vs hexacarboxy derivative", "setting": "[11]; aqueous solution", "value": "less soluble"}]}
{"compound": "C60 (C(COOH)2)3", "values": [{"measurement": "scavenging ability towards OH vs potency for O2- radicals", "setting": "[2]; OH over O2-", "value": 10, "unit": "fold"}, {"measurement": "reduction in neuronal death, serum deprivation", "setting": "[12]; 10 (M [µM], 48 hours, trypan blue, 10 µM", "value": 50, "unit": "%"}, {"measurement": "apoptotic neuronal death due to serum deprivation", "setting": "[12]; co-application", "value": "attenuated"}, {"measurement": "reduction of neuronal cell death from AMPA", "setting": "[7]; 100 (M [µM], MK-801 10 (M included), 24 h, data from 4 experiments pooled, 100 µM", "value": "> 80", "unit": "%"}, {"measurement": "protection against AMPA excitotoxic injury", "setting": "[7]; cortical neurons", "value": "protected cortical neurons against excitotoxic injury; also recorded: robust neuroprotection"}, {"measurement": "onset of symptoms", "setting": "[13]", "value": "delay in onset of symptoms"}, {"measurement": "delay in death", "setting": "[13]; p=0.041 by t-test", "value": "8 ± 2.2", "unit": "days"}, {"measurement": "body weight vs untreated littermates", "setting": "[14]", "value": "weights were similar"}, {"measurement": "protection from NMDA, some experiments", "setting": "[8]; 300 (M [µM]", "value": "nearly complete protection"}, {"measurement": "reduction of neuronal death from NMDA, all experiments", "setting": "[8]; 300 (M [µM], 24 h after 10 min NMDA, 300 µM", "value": "at least 60%"}, {"measurement": "protection against NMDA excitotoxic injury", "setting": "[8]; cortical neurons", "value": "protected cortical neurons against excitotoxic injury; also recorded: robust neuroprotection"}, {"measurement": "reduction in neuronal cell death (NMDA), pooled data", "setting": "[8]; pooled data from three experiments, FIG. 5", "value": 75, "unit": "%"}, {"measurement": "45Ca2+ accumulation", "setting": "[15]", "value": "not affected"}, {"measurement": "solubility in water", "setting": "[11]; water", "value": "at least 50 mM"}]}
